Data: patent publication US8383139B2 (Bayer CropScience AG, priority 2008, dated 2013)

Experiments:
Alternaria solani = test: Alternaria test (tomato)/protective; assay type: in vivo; conditions: 72 h, 100 ppm active substance, protective, evaluation 3 days after inoculation, read-out: degree of effectiveness
Uromyces appendiculatus = test: Uromyces test (beans)/protective; assay type: in vivo; conditions: 240 h, 100 ppm active substance, protective, evaluation 10 days after inoculation, read-out: degree of effectiveness
Outline: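 Young bean plants were sprayed with compound (acetone/dimethylacetamide/emulsifier concentrate diluted in water), dried, then inoculated with U. appendiculatus spores. They were held 1 day at ~20 °C, 100% RH, then kept in a greenhouse at ~21 °C, ~90% RH. Efficacy was scored at 10 days post-inoculation (0% = control, 100% = no infestation).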

Sphaerotheca fuliginea = test: Sphaerotheca test (cucumber)/protective; assay type: in vivo; conditions: Podosphaera fuliginea, 168 h, 500 ppm active substance, protective, evaluation 7 days after inoculation, read-out: degree of effectiveness
Outline: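 Young cucumber plants sprayed at the stated rate with active substance in DMF/alkylaryl polyglycol ether emulsifier diluted in water, then inoculated with Sphaerotheca fuliginea spores one day later. Kept in greenhouse at 70% relative humidity, 23° C.; scored 7 days post-inoculation as % efficacy (0% = untreated control, 100% = no infestation).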

Puccinia triticina = Puccinia triticina test (wheat)/protective; assay type: in vivo; conditions: 192 h, 500 ppm active substance, protective, evaluation 8 days after inoculation, read-out: degree of effectiveness
Outline: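 Protective test: young wheat plants sprayed with compound (in N,N-dimethylacetamide/emulsifier, diluted in water) at the stated rate, dried, then inoculated with Puccinia triticina spores; 48 h at 20 °C, 100% RH, then greenhouse ~20 °C, ~80% RH. Efficacy scored 8 days post-inoculation, 0% = untreated control, 100% = no infestation.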

Septoria tritici = Septoria tritici test (wheat)/protective; assay type: in vivo; conditions: Zymoseptoria tritici, 504 h, 500 ppm active substance, protective, evaluation 21 days after inoculation, read-out: degree of effectiveness
Outline: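 Young wheat plants sprayed with compound in dimethylacetamide/emulsifier-water, then inoculated with S. tritici spores once dry. Kept 48 h at 20 °C/100% RH, 60 h at 15 °C/100% RH, then greenhouse ~15 °C/80% RH. Scored 21 days post-inoculation as % efficacy versus untreated control.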

Phakopsora pachyrhizi = test: Phakopsora test (soybean)/protective; assay type: in vivo; conditions: 264 h, 500 ppm active substance, protective, evaluation 11 days after inoculation, read-out: degree of effectiveness
Description: • Solvent: 28.5 parts by weight of acetone • Emulsifier: 1.5 parts by weight of polyoxyethylene alkylphenyl ether (polyoxy-ethylene (16) tristearylphenyl ether)
To prepare a suitable active substance composition, 1 part by weight of active substance is mixed with the given amounts of solvent and emulsifier and the concentrate is diluted to the desired concentration using water.
For the testing of protective effectiveness, young plants are sprayed with the active substance composition at the application rate given. One day after the spraying, the plants are sprayed with an aqueous suspension of spores of Phakopsora pachyrhizi. The plants remain in a greenhouse at 20° C. and 80% relative humidity.
Evaluation is carried out 11 days after the inoculation. In this connection, 0% means a degree of effectiveness corresponding to that of the control, while a degree of effectiveness of 100% means that no infestation is observed.

[1] = log P by HPLC on reversed-phase columns (C 18), EEC Directive 79/831 Annex V.A8; assay type: physicochemical; conditions: reversed-phase C18 HPLC column, pH 2.3, [a] HPLC, acid region pH 2.3, 0.1% aqueous phosphoric acid and acetonitrile; read-out: log p

chromatographic logP [1]	Compound	pest or weed control at 100 ppm (Alternaria solani)	pest or weed control at 100 ppm (Uromyces appendiculatus)	pest or weed control at 500 ppm (Sphaerotheca fuliginea)	pest or weed control at 500 ppm (Puccinia triticina)	pest or weed control at 500 ppm (Septoria tritici)	pest or weed control at 500 ppm (Phakopsora pachyrhizi)
2.09	Cc1cc(Oc2nc(Cc3ccc(Cl)cc3)ns2)c(C)cc1N=CN1CCCCC1 [Example 2, 4-{[3-(4-chlorobenzyl)-1,2,4-thiadiazol-5-yl]oxy}-2,5-dimethyl-N-(piperidin-1-ylmethylidene)aniline]	≥ 70%	≥ 70%	≥ 70%	≥ 70%	≥ 70%	≥ 80%
2.34	CCN(C)C=Nc1cc(C)c(Oc2nc(C(C)c3ccc(Cl)cc3)ns2)cc1C (centres unmarked) [Example 17, N′-[4-({3-[1-(4-chlorophenyl)ethyl]-1,2,4-thiadiazol-5-yl}oxy)-2,5-dimethylphenyl]-N-ethyl-N-methylimidoformamide]	≥ 70%	≥ 70%	≥ 70%	≥ 70%	≥ 70%	≥ 80%
2.39	CCN(C)C=Nc1cc(Cl)c(Oc2nc(C(C)c3ccc(Cl)cc3)ns2)cc1C (centres unmarked) [Example 20, N′-[5-chloro-4-({3-[1-(4-chlorophenyl)ethyl]-1,2,4-thiadiazol-5-yl}oxy)-2-methylphenyl]-N-ethyl-N-methylimidoformamide]	–	≥ 70%	≥ 70%	≥ 70%	–	≥ 80%

The remaining lines, values behind:

Compound	chromatographic logP [1]	pest or weed control at 100 ppm (Alternaria solani)	pest or weed control at 100 ppm (Uromyces appendiculatus)	pest or weed control at 500 ppm (Sphaerotheca fuliginea)	pest or weed control at 500 ppm (Puccinia triticina)	pest or weed control at 500 ppm (Septoria tritici)	pest or weed control at 500 ppm (Phakopsora pachyrhizi)
CCN(C)C=Nc1cc(C)c(Oc2nc(Cc3ccc(Cl)cc3)ns2)cc1C [Example 1, N′-(4-{[3-(4-chlorobenzyl)-1,2,4-thiadiazol-5-yl]oxy}-2,5-dimethylphenyl)-N-ethyl-N-methylimidoformamide]	–	≥ 70%	≥ 70%	≥ 70%	≥ 70%	≥ 70%	≥ 80%
CCN(C)C=Nc1cc(Cl)c(Oc2nc(Cc3ccc(Cl)cc3)ns2)cc1C [Example 3, N′-(5-chloro-4-{[3-(4-chlorobenzyl)-1,2,4-thiadiazol-5-yl]oxy}-2-methylphenyl)-N-ethyl-N-methylimidoformamide]	–	≥ 70%	≥ 70%	≥ 70%	≥ 70%	≥ 70%	≥ 80%
CCN(C)C=Nc1cc(C)c(Oc2nc(C(C)c3ccccc3)ns2)cc1C (centres unmarked) [Example 5, N′-(2,5-dimethyl-4-{[3-(1-phenylethyl)-1,2,4-thiadiazol-5-yl]oxy}phenyl)-N-ethyl-N-methylimidoformamide]	1.92	≥ 70%	≥ 70%	≥ 70%	≥ 70%	–	≥ 80%
CCN(C)C=Nc1cc(C)c(Oc2nc(Cc3ccc(Cl)cc3Cl)ns2)cc1C [Example 11, N′-(4-{[3-(2,4-dichlorobenzyl)-1,2,4-thiadiazol-5-yl]oxy}-2,5-dimethylphenyl)-N-ethyl-N-methylimidoformamide]	2.19	≥ 70%	≥ 70%	≥ 70%	≥ 70%	≥ 70%	≥ 80%
Cc1cc(Oc2nc(Cc3ccc(Br)cc3)ns2)c(C)cc1N=CN(C)C(C)C [Example 32, N′-(4-{[3-(4-bromobenzyl)-1,2,4-thiadiazol-5-yl]oxy}-2,5-dimethylphenyl)-N-methyl-N-(propan-2-yl)imidoformamide]	–	≥ 70%	≥ 70%	≥ 70%	≥ 70%	≥ 70%	≥ 80%
